Measurements taken from patent US10975056B2 (GlaxoSmithKline Intellectual Property Development Limited, priority 2016, dated 2021).
“And” between values parts separate entries of the source, which are not always exact repeats. Equal entries are not always repeated. Structures can show the parent of a compound that is named as a salt. Where two headings read alike, the source gives them in different places.

How the values were obtained:
DNMT1 = DNMT1 (Homo sapiens, UniProt P26358); assay: DNMT1 biochemical activity, breaklight assay and/or SPA assay
Sequence of DNMT1 (P26358 whole entry, looked up): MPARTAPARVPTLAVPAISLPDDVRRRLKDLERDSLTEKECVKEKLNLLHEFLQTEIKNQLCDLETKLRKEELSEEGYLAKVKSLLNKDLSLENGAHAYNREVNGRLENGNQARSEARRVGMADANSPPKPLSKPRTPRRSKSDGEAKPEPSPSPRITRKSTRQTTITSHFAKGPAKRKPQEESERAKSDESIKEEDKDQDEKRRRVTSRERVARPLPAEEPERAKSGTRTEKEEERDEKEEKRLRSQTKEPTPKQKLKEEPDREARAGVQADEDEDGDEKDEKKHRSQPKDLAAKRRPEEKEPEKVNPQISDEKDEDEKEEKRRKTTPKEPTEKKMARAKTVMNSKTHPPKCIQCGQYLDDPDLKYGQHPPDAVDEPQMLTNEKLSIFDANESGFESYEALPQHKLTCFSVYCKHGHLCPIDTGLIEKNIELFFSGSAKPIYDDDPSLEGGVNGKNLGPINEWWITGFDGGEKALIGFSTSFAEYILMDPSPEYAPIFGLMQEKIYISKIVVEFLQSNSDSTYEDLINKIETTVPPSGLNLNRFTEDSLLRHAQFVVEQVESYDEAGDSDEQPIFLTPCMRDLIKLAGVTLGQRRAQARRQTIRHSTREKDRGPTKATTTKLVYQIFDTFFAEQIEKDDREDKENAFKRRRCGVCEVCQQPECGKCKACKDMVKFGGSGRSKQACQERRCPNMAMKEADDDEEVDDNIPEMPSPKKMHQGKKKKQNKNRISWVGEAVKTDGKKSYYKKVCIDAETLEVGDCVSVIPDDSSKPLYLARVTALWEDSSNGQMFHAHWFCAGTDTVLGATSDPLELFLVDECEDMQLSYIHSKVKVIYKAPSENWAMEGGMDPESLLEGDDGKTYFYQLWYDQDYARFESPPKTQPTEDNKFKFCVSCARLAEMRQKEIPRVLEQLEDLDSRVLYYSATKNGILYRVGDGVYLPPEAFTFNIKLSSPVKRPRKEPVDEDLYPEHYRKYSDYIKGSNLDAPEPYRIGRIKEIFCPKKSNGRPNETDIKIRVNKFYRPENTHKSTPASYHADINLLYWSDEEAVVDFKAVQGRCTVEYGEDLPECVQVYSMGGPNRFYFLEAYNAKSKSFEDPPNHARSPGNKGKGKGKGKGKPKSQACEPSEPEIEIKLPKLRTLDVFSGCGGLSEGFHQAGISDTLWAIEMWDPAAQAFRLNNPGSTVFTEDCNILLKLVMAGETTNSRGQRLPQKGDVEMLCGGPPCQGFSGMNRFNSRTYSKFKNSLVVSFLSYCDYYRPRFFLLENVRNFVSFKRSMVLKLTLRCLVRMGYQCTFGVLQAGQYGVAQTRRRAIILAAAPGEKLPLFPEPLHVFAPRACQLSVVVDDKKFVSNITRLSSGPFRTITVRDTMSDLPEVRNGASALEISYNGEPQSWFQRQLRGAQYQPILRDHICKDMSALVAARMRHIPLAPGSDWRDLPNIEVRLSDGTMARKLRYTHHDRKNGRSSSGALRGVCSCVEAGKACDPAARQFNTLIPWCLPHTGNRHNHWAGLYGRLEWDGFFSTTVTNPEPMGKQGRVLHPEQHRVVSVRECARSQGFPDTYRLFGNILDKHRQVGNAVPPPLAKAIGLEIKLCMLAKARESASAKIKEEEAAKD

[1] = system: erythroid progenitor cells (EPCs); assay: Fetal hemoglobin (HbF) ELISA in day 7 erythroid progenitor cells; assay type: cell-based, human; conditions: Homo sapiens, Erythroid progenitor cell, HbF ELISA, day 7 EPCs, 5 days; read-out: EPC ELISA (pEC50 category) (converted);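 further: for fetal hemoglobin induction normalized to vehicle-treated cells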
Procedure, shortened: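 HbF induction was read by anti-HbF sandwich ELISA (HRP/TMB, OD450) on lysates and normalized to vehicle-treated cells. Cells were day 7 erythroid progenitors derived from human bone marrow CD34+ cells, seeded at 1,000/well with 3 U/mL rhEPO. Compound was given for 5 days at 37 °C at final concentrations […].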

[2] = binned activity in either the breaklight or the SPA assay, read-out: DNMT1 BioChemical (pIC50 category) (converted)
[3] = binned activity in either the breaklight or the SPA assay
[4] = breaklight assay and/or SPA assay, repeated experimental runs, read-out: average pIC50 against DNMT1 (converted)

IC50 (DNMT1; [2]) [µM] | EC50 [1] [µM] | DNMT1 BioChemical (pIC50 category) (DNMT1; [3]) | IC50 (DNMT1; [4]) | Compound
1 to 31.6 | > 31.6 |  |  | CCc1c(C#N)c(SCc2ccc(CN)cc2)nc(N(C)C)c1C#N [Example 272, 2-((4-(Aminomethyl)benzyl)thio)-6-(dimethylamino)-4-ethylpyridine-3,5-dicarbonitrile, Hydrochloride]
0.316 to 1 | 1 to 31.6 |  |  | CCc1c(C#N)c(SCc2ccc(NC(C)=O)cc2)nc(N(C)C)c1C#N [Example 273]
 | < 0.316 | D (Category D: ≥6.5) |  | CCc1c(C#N)c(SC(C(N)=O)c2ccccc2)nc(N2CCC(OC(=O)[C@@H](N)C(C)C)CC2)c1C#N (stereo partly drawn) [Example 274, 1-(6-((2-Amino-2-oxo-1-phenylethyl)thio)-3,5-dicyano-4-ethylpyridin-2-yl)piperidin-4-yl (2S)-2-amino-3-methylbutanoate]
0.316 to 1 | 0.316 to 1 |  |  | CCc1c(C#N)c(SC(C(N)=O)c2ccccc2)nc(N(C)CCOC(=O)[C@@H](N)C(C)C)c1C#N (some centres unmarked) [Example 275]
0.316 to 1 | > 31.6 |  |  | CCc1c(C#N)c(SC(C(N)=O)c2ccccc2)nc(SC(C(N)=O)c2ccccc2)c1C#N (centres unmarked) [Example 276, 2,2′-((3,5-Dicyano-4-ethylpyridine-2,6-diyl)bis(sulfanediyl))bis(2-phenylacetamide)]
 | 1 to 31.6 | D (Category D: ≥6.5) |  | CCc1c(C#N)c(SCc2ccc(CNC(=O)CO)cc2)nc(N(C)C)c1C#N [Example 278, N-(4-(((3,5-Dicyano-6-(dimethylamino)-4-ethylpyridin-2-yl)thio)methyl)benzyl)-2-hydroxyacetamide]
0.316 to 1 | > 31.6 |  | ≥ 1 µM and 1 µM | CCc1c(C#N)c(SCc2ccc(CNC(=O)CCN)cc2)nc(N(C)C)c1C#N [Example 279, 3-Amino-N-(4-(((3,5-dicyano-6-(dimethylamino)-4-ethylpyridin-2-yl)thio)methyl)benzyl)propanamide]
 | 0.316 to 1 | D (Category D: ≥6.5) |  | CCc1c(C#N)c(SC(C(N)=O)c2ccccc2)nc(N2CC(N)C2)c1C#N (centres unmarked) [Example 281, 2-((6-(3-Aminoazetidin-1-yl)-3,5-dicyano-4-ethylpyridin-2-yl)thio)-2-phenylacetamide]
0.316 to 1 | 1 to 31.6 |  | 0.316 to 1 µM and 0.631 µM | CCc1c(C#N)c(C)nc(SC(C(N)=O)c2ccccc2)c1C#N (centres unmarked) [Example 283, 2-((3,5-Dicyano-4-ethyl-6-methylpyridin-2-yl)thio)-2-phenylacetamide]
0.316 to 1 | > 31.6 |  |  | CCc1c(C#N)c(C)nc(SCc2ccc(CNC(C)=O)cc2)c1C#N [Example 284, N-(4-(((3,5-Dicyano-4-ethyl-6-methylpyridin-2-yl)thio)methyl)benzyl)acetamide]
0.316 to 1 | 1 to 31.6 |  |  | CCc1c(C#N)c(SCc2cnn(CC(N)=O)c2)nc(N(C)C)c1C#N [Example 285, 2-(4-(((3,5-Dicyano-6-(dimethylamino)-4-ethylpyridin-2-yl)thio)methyl)-1H-pyrazol-1-yl)acetamide]
 | 1 to 31.6 | D (Category D: ≥6.5) | 0.316 to 1 µM and 0.316 µM | CCc1c(C#N)c(SC(C(N)=O)c2ccccc2)nc(N2CCC(NC(=O)CO)CC2)c1C#N (centres unmarked) [Example 286, N-(1-(6-((2-Amino-2-oxo-1-phenylethyl)thio)-3,5-dicyano-4-ethylpyridin-2-yl)piperidin-4-yl)-2-hydroxyacetamide]
0.316 to 1 | 1 to 31.6 |  |  | CCc1c(C#N)c(SCc2ccc(NS(C)(=O)=O)cc2)nc(N(C)C)c1C#N [Example 287, N-(4-(((3,5-Dicyano-6-(dimethylamino)-4-ethylpyridin-2-yl)thio)methyl)phenyl) methanesulfonamide]
 | 1 to 31.6 | D (Category D: ≥6.5) |  | CCc1c(C#N)c(SC(C(N)=O)c2ccccc2)nc(N2CC(NC(=O)CO)C2)c1C#N (centres unmarked) [Example 288, N-(1-(6-((2-Amino-2-oxo-1-phenylethyl)thio)-3,5-dicyano-4-ethylpyridin-2-yl)azetidin-3-yl)-2-hydroxyacetamide]
0.316 to 1 | 1 to 31.6 |  |  | CCc1c(C#N)c(SCc2ccc(CNC(C)=O)cc2)nc(N2CCC(OC(=O)[C@@H](N)C(C)C)CC2)c1C#N [Example 289, (S)-1-(6-((4-(Acetamidomethyl)benzyl)thio)-3,5-dicyano-4-ethylpyridin-2-yl)piperidin-4-yl 2-amino-3-methylbutanoate]
0.316 to 1 | 1 to 31.6 |  |  | CCc1c(C#N)c(SCc2ccc(CNC(C)=O)cc2)nc(N2CCC(NC(C)=O)CC2)c1C#N [Example 290, N-(1-(6-((4-(Acetamidomethyl)benzyl)thio)-3,5-dicyano-4-ethylpyridin-2-yl)piperidin-4-yl)acetamide]
0.316 to 1 | 1 to 31.6 |  |  | CCc1c(C#N)c(SCc2ccc(CC(=O)NCCO)cc2)nc(N(C)C)c1C#N [Example 291, 2-(4-(((3,5-Dicyano-6-(dimethylamino)-4-ethylpyridin-2-yl)thio)methyl)phenyl)-N-(2-hydroxyethyl)acetamide]
0.316 to 1 | 1 to 31.6 |  |  | CCc1c(C#N)c(SCc2ccc(C(=O)NCCO)cc2)nc(N(C)C)c1C#N [Example 292, 4-(((3,5-Dicyano-6-(dimethylamino)-4-ethylpyridin-2-yl)thio)methyl)-N-(2-hydroxyethyl)benzamide]
0.316 to 1 | > 31.6 |  |  | CCc1c(C)c(N2CCNCC2)nc(SC(C(N)=O)c2ccccc2)c1C#N (centres unmarked) [Example 293, 2-((3-Cyano-4-ethyl-5-methyl-6-(piperazin-1-yl)pyridin-2-yl)thio)-2-phenylacetamide]
0.316 to 1 | > 31.6 |  |  | CCc1c(C#N)c(SCc2ccc(-n3ccnc3)cc2)nc(N2CCCN(C)CC2)c1C#N [Example 294, 2-((4-(1H-Imidazol-1-yl)benzyl)thio)-4-ethyl-6-(4-methyl-1,4-diazepan-1-yl)pyridine-3,5-dicarbonitrile]
0.316 to 1 | > 31.6 |  |  | CCc1c(C#N)c(SCc2ccc(C#N)c(C)c2)nc(N2CCCN(C)CC2)c1C#N [Example 295, 2-((4-Cyano-3-methylbenzyl)thio)-4-ethyl-6-(4-methyl-1,4-diazepan-1-yl)pyridine-3,5-dicarbonitrile]
0.316 to 1 | > 31.6 |  |  | CCc1c(C#N)c(SCc2ccc(NC(=O)OC(C)(C)C)cc2)nc(N2CCCN(C)CC2)c1C#N [Example 296, tert-Butyl (4-(((3,5-dicyano-4-ethyl-6-(4-methyl-1,4-diazepan-1-yl)pyridin-2-yl)thio)methyl)phenyl)carbamate]
0.316 to 1 | > 31.6 |  |  | CCc1c(C#N)c(SCc2ccc(N)cc2)nc(N2CCCN(C)CC2)c1C#N [Example 297, 2-((4-Aminobenzyl)thio)-4-ethyl-6-(4-methyl-1,4-diazepan-1-yl)pyridine-3,5-dicarbonitrile]

Compound | IC50 (DNMT1; [2]) [µM] | EC50 [1] [µM] | DNMT1 BioChemical (pIC50 category) (DNMT1; [3]) | IC50 (DNMT1; [4])
CCc1c(C#N)c(SC(C(N)=O)c2ccccc2)nc(N2CC(COC(=O)[C@@H](N)C(C)C)C2)c1C#N (some centres unmarked) [Example 277] |  | 1 to 31.6 | D (Category D: ≥6.5) | 
CCc1c(C#N)c(SCc2ccc(CNC(C)=O)cc2)nc(N2CC(OC(=O)[C@@H](N)C(C)C)C2)c1C#N [Example 282, (S)-1-(6-((4-(Acetamidomethyl)benzyl)thio)-3,5-dicyano-4-ethylpyridin-2-yl)azetidin-3-yl 2-amino-3-methylbutanoate, Trifluoroacetic Acid Salt] |  | 1 to 31.6 | D (Category D: ≥6.5) | 
